PubChem BioAssay AID588580 (Sanford-Burnham Center for Chemical Genomics, 2011)
The source made the active and inactive calls.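 Rule for the calls: active = mean EC50 of 20 µM or lower; inactive = the rest.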

Each compound was assayed against CHO XBP1-luciferase reporter, UPR activation, luminescence (assay: activators of UPR IRE1-XBP1 adaptive arm, SAR follow-up, cell-based, luciferase luminescence, set 2 (AID 588580)).

EC50 | SMILES
> 80 µM (inactive) | Cc1cc(Br)cc(NC(=O)c2cc(-c3ccncc3)nc3ccccc23)c1
> 80 µM (inactive) | Cc1cc(NC(=O)c2cc(-c3ccccc3)nc3ccccc23)ccc1Br
inactive | O=C(Nc1ccc(F)c(F)c1)c1cc(-c2ccncc2)nc2ccccc12
inactive | O=C(Nc1cccc(F)c1)c1cc(-c2ccncc2)nc2ccccc12
> 80 µM (inactive) | Cc1cccc(NC(=O)c2cc(-c3ccncc3)nc3ccccc23)c1
> 80 µM (inactive) | Cc1cc(NC(=O)c2cc(-c3ccncc3)nc3ccccc23)ccc1F
> 80 µM (inactive) | O=C(Nc1cccc(Br)c1)c1cc(-c2ccncc2)nc2ccccc12
8.42 µM | O=C(Nc1ccc(Cl)cc1)c1cc(-c2ccncc2)nc2ccccc12
> 80 µM (inactive) | O=C(Nc1ccccc1Br)c1cc(-c2ccncc2)nc2ccccc12
> 80 µM (inactive) | O=C(Nc1cccc(C(F)(F)F)c1)c1cc(-c2ccncc2)nc2ccccc12
> 80 µM (inactive) | COc1cccc(NC(=O)c2cc(-c3ccncc3)nc3ccccc23)c1
> 80 µM (inactive) | O=C(Nc1cc(F)ccc1F)c1cc(-c2ccncc2)nc2ccccc12
2.2 µM | O=C(Nc1ccc(C(F)(F)F)cc1)c1cc(-c2ccncc2)nc2ccccc12
inactive | O=C(Nc1ccc(F)cc1)c1cc(-c2ccncc2)nc2ccccc12
> 80 µM (inactive) | O=C(Nc1cccc(F)c1Br)c1cc(-c2ccncc2)nc2ccccc12
inactive | Cc1cc(NC(=O)c2cc(-c3ccncc3)nc3ccccc23)ccc1Cl
> 80 µM (inactive) | O=C(Nc1cccc(F)c1F)c1cc(-c2ccncc2)nc2ccccc12
13.4 µM | Cc1ccc(NC(=O)c2cc(-c3ccncc3)nc3ccccc23)cc1
> 80 µM (inactive) | O=C(Nc1ccc(Br)c(C(F)(F)F)c1)c1cc(-c2ccncc2)nc2ccccc12
> 80 µM (inactive) | O=C(Nc1cccc(Cl)c1)c1cc(-c2ccncc2)nc2ccccc12
